Laboratory results taken from US20240308878A1, “WATER TREATMENT SYSTEM, WATER TREATMENT METHOD, AND AMINE SOLUTION” (KABUSHIKI KAISHA TOSHIBA, priority 2023, published 2024).

Test: Heating of the separated supernatant in a thermostatic bath: separation into amine phase and aqueous phase
Type: physicochemical
From the text: The element 15 that separates the supernatant phase F into the aqueous phase H and the organic phase J and recovers the tertiary amine recovers the tertiary amine included in the supernatant phase F. As the element 15 that separates the supernatant phase F into the aqueous phase H and the organic phase J and recovers the tertiary amine, the mechanism of heating the supernatant phase F is preferable. For example, the supernatant phase F is stored in a second container, not shown, and the supernatant phase F is heated in the second container. As the temperature of the supernatant phase F is increased, the compatibility of the tertiary amine compounds of the embodiment with water changes, and supernatant phase F separates into the organic phase and the aqueous phase. The supernatant phase F separates into the aqueous phase H and the organic phase J at a higher temperature than the first mixture D which separates into the phases. It is preferable that the supernatant phase F is heated to a temperature higher than the temperature of the first mixture (the temperature at which the first mixture D is phase-separated (the temperature at which the supernatant phase F and the concentrated phase G are separated separately)). It is preferable that the supernatant phase F is heated to a temperature 5[° C.] or higher than the temperature of the first mixture D (the temperature at which the first mixture D is phase-separated (the temperature at which the supernatant phase F and the concentrated phase G are separated separately)). It is preferable that the supernatant phase F is heated to a temperature 10[° C.] or higher than the temperature of the first mixture D (the temperature at which the first mixture D is phase-separated (the temperature at which the supernatant phase F and the concentrated phase G are separated separately)). It is preferable that the supernatant phase F is heated to a temperature 20[° C.] or higher than the temperature of the first mixture D (the temperature at which the first mixture D is phase-separated (the temperature at which the supernatant phase F and the concentrated phase G are separated separately)). It is preferable that the supernatant phase F is heated to a temperature 20 [° C.] or higher than the temperature of the first mixture D. It is preferable that the supernatant phase F is heated to a temperature 30 [° C.] or higher than the temperature of the first mixture D (the temperature at which the first mixture D is phase-separated (the temperature at which the supernatant phase F and the concentrated phase G are separated separately)). The supernatant phase F is preferably heated to 35[° C.] or more and less than 90[° C.]. From the viewpoint of reducing energy consumption, it is more preferably that the supernatant phase F is heated to 35[° C.] or more and 75[° C.] or less. The supernatant phase F is preferably phase-separated at 35 [° C.] or more and less than 90[° C.]. From the viewpoint of reducing energy consumption, the supernatant phase F is more preferably phase-separated at 35[° C.] or more and less than 90[° C.]. It is preferable to use waste heat generated at a plant or the like to heat the supernatant phase F.
When the separated supernatant solution is heated in a thermostatic bath at 70[° C.], it is separated into an amine phase and an aqueous phase. When the amine phase is separated and used for the same test, the salt removal rate of 97.5 [%] is obtained, and the concentration of the lower phase being separated of 21.2 [wt %] is obtained, which is the similar results as in the first test.

[1] = supernatant of the S/F 4.0 test
[2] = supernatant of the S/F 6.0 test
[3] = supernatant of the S/F 7.0 test
[4] = supernatant of the S/F 10.0 test

SMILES	Separating Temperature Water/Amine [1] [°C]	Separating Temperature Water/Amine [2] [°C]	Separating Temperature Water/Amine [3] [°C]	Separating Temperature Water/Amine [4] [°C]
C1CCN(CCCN2CCCC2)C1 [chemical formula (1-2)]	70	70	60	70
CCOC(=O)N1CCN(CCCN2CCN(C(=O)OCC)CC2)CC1 [chemical formula (2-1)]	70	70	50	70
